Like-named read-outs stand apart in the source and are kept apart here.
Legend:
rats [1] = experiment: Electrically kindled rat model of epilepsy, p.o.; format: in vivo; settings: po, read-out: ED50 (prevented seizures)
Text: The rat electrical kindling model of epilepsy has been known to show efficacy of antiepileptic agents against complex partial seizures that evolve into generalized motor seizures. In these tests, rats were electrically stimulated via corneal electrodes twice daily for approximately 5 days and then once daily for an additional 10 days. Once the seizure criteria, as described by R.J. Racine, et al., Electroenceph. Clin. Neurophysiol. 32: 281-294 (1972), were met, the test substance was administered p.o. to rats, and the rat electrically stimulated, and observed for the presence or absence of a seizure.

rats [2] = settings: Rattus norvegicus, po, read-out: RATS scMet ED50
[3] = tested on: mechanically dissociated neonatal rat cerebellum; experiment: Reversal of NMDA induced cell death in cultures of neonatal rat cerebellum; format: cell-based; settings: for SURVIVING CELL IN CULTURE: relative to control (100%); for PERCENT PROTECTION: Cell Survival minus the NMDA effect; for EFFECTIVE PROTECTION: X x 100/70
How it was run: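 Cerebellar cells from 6–7-day rat pups on poly-L-lysine at 200/mm^2, grown 3 days (37°C, 5% CO2), then compound with NMDA challenge (1mM, 3 hours); spermine (0.01 micromoles) plus NMDA as positive control, duplicates. Survival by phase contrast and trypan blue after 24 hours; effective protection = percent protection ×100/70.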

mice = settings: Mus musculus, ip, read-out: MICE scMet ED50, mice, i.p.; Table 16
hypoxia-lesioned rats = experiment: Water maze working memory test in hypoxia-lesioned rats, Experiment 3B; format: in vivo, rat; settings: 0.5mg/kg/day 60 days, ±SEM
Text: The apparatus used consists of a circular water tank 160cm in diameter filled with water to a depth of 38cm. The water was made cloudy by the addition of milk powder. A clear Plexiglass 15cm platform, supported by a movable stand rest on the bottom of the tank was submerged to a depth of 2cm from the water surface. Normally a swimming rat cannot perceive the location of the platform but it may recall it from a previous experience and training, unless it suffers from some memory impairment. The time taken to locate the platform is measured in seconds and referred to as the latency. During the experiment all orientational cues such as ceiling lights etc. remained unchanged. Longer latencies are observed with rats with some impairment to their memory.
Each rat was given two trails a day for four days, entering the pool from the same point of entry each day. The position of the platform was changed daily to one of four predetermined positions. Each rat was tested twice each day over the four days, referred to as runs 1 and 2 on sessions I-IV. Initially the rat was placed on the platform for 60 seconds. It was then removed and placed at the point of entry and allowed a maximum of 120 seconds to locate the platform (run 1). The second run for that day followed 60 seconds later (run 2). In the second run the rat is expected to find the platform much sooner, having benefitted from its earlier experience. […] The average latency of run 1 in four sessions on four different days was then related to the corresponding parameter of run 2. The smaller the ratio of […], the better the short range learning score.
Table 8. […] The data are the latencies in seconds±SEM that it took a given group to locate a submerged and invisible platform the location of which was shifted from one session to the other. The time interval between sessions was one day, and that between successive runs was 60 seconds. (n=7-8 rats per group) TABLE 8

rats [4] = experiment: Closed head injury in rats: motor function (Neurological Severity Status), Experiments 4A-4E
[5] = 0.005 µM + NMDA 1mM for 3 hours
[6] = 0.010 µM + NMDA 1mM for 3 hours
[7] = 0.100 µM + NMDA 1mM for 3 hours
[8] = Exp 4A, 0.1mg/kg i.p. at 0,4,8 and 12 hours post-trauma
[9] = Exp 4B, 0.1mg/kg once a day for 14 days

CC(=O)N[C@@H]1CCc2ccccc21 [Example 18, (R)-N-Acetyl-1-aminoindan]
ED50 (rats [1]): 24.6 mg/kg | ED50 (rats [2]): > 250 mg/kg | SURVIVING CELL IN CULTURE [3, 5]: 80% | PERCENT PROTECTION ([3]; 0.005 µM + NMDA): 50% | EFFECTIVE PROTECTION ([3]; 0.005 µM + NMDA): 71% | SURVIVING CELL IN CULTURE [3, 6]: 80% | PERCENT PROTECTION ([3]; 0.010 µM + NMDA): 50% | EFFECTIVE PROTECTION ([3]; 0.010 µM + NMDA): 71% | SURVIVING CELL IN CULTURE [3, 7]: 55% | PERCENT PROTECTION ([3]; 0.100 µM + NMDA): 25% | EFFECTIVE PROTECTION ([3]; 0.100 µM + NMDA): 36% | SURVIVING CELL IN CULTURE ([3]; 1.000 µM + NMDA 1mM for 3 hours): 47% | PERCENT PROTECTION ([3]; 1.000 µM + NMDA): 17% | EFFECTIVE PROTECTION ([3]; 1.000 µM + NMDA): 24% | SURVIVING CELL IN CULTURE ([3]; 5.000 µM + NMDA 1mM for 3 hours): 32% | PERCENT PROTECTION ([3]; 5.000 µM + NMDA): 2% | EFFECTIVE PROTECTION ([3]; 5.000 µM + NMDA): 3% | ED50 (mice): 66 mg/kg

N[C@@H]1CCc2ccccc21 [R-AI, (R)-1-aminoindan]
SURVIVING CELL IN CULTURE [3, 5]: 80% | PERCENT PROTECTION ([3]; 0.005 µM + NMDA): 50% | EFFECTIVE PROTECTION ([3]; 0.005 µM + NMDA): 71% | SURVIVING CELL IN CULTURE [3, 6]: 30% | PERCENT PROTECTION ([3]; 0.010 µM + NMDA): 0% | EFFECTIVE PROTECTION ([3]; 0.010 µM + NMDA): 0% | SURVIVING CELL IN CULTURE [3, 7]: 28% | PERCENT PROTECTION ([3]; 0.100 µM + NMDA): -2% | latency to locate submerged platform (hypoxia-lesioned rats; Session I Run 1): 50 ± 16 s | latency to locate submerged platform (hypoxia-lesioned rats; Session I Run 2): 25 ± 12 s | latency to locate submerged platform (hypoxia-lesioned rats; Session II Run 1): 25 ± 8 s | latency to locate submerged platform (hypoxia-lesioned rats; Session II Run 2): 14 ± 3 s | latency to locate submerged platform (hypoxia-lesioned rats; Session III Run 1): 19 ± 5 s | latency to locate submerged platform (hypoxia-lesioned rats; Session III Run 2): 14 ± 3 s | latency to locate submerged platform (hypoxia-lesioned rats; Session IV Run 1): 15 ± 5 s | latency to locate submerged platform (hypoxia-lesioned rats; Session IV Run 2): 6 ± 2 s | NSS 1hr (rats [4]; [8]): 16.8 | NSS 24hr (rats [4]; [8]): 8.3 | ΔNSS (rats [4]; Exp 4A, 0.1mg/kg i.p. at 0,4,8 and 12 hours post-trauma, change 1 hour to 24 hours): 8.5±0.5 | NSS at 1hr (rats [4]; [9]): 17.7±0.5 | ΔNSS at 24hr (rats [4]; [9]): 7.3±0.8 | ΔNSS at 48hr (rats [4]; [9]): 9.3±0.8 | ΔNSS at 7d (rats [4]; [9]): 11.8±0.5 | ΔNSS at 14d (rats [4]; [9]): 14.0±0.4 | NSS 1hr (rats [4]; Exp 4C, 0.03 mg/kg): 16.3 | NSS 24hr (rats [4]; Exp 4C, 0.03 mg/kg): 10.4 | ΔNSS (rats [4]; Exp 4C, 0.03 mg/kg): 5.9±0.3 | NSS 1hr (rats [4]; Exp 4C, 0.1 mg/kg): 16.2 | NSS 24hr (rats [4]; Exp 4C, 0.1 mg/kg): 10.4 | ΔNSS (rats [4]; Exp 4C, 0.1 mg/kg): 5.8±0.4 | NSS 1hr (rats [4]; Exp 4C, 0.3 mg/kg): 16.6 | NSS 24hr (rats [4]; Exp 4C, 0.3 mg/kg): 8.5 | ΔNSS (rats [4]; Exp 4C, 0.3 mg/kg): 8.1±0.5 | NSS 1hr (rats [4]; Exp 4C, 1.0 mg/kg): 16.8 | NSS 24hr (rats [4]; Exp 4C, 1.0 mg/kg): 8.8 | ΔNSS (rats [4]; Exp 4C, 1.0 mg/kg): 8.0±0.5 | NSS 1hr (rats [4]; Exp 4C, 3.0 mg/kg): 16.4 | NSS 24hr (rats [4]; Exp 4C, 3.0 mg/kg): 7.8 | ΔNSS (rats [4]; Exp 4C, 3.0 mg/kg): 8.6±0.7 | ΔNSS (rats [4]; Exp 4D, 1mg/kg, times of administration 0): 8.8±10.8 | ΔNSS (rats [4]; Exp 4D, 1mg/kg, times of administration 0 + 4h): 8.0±1.0 | ΔNSS (rats [4]; Exp 4D, 1mg/kg, times of administration 0 + 8h): 8.0±0.1 | ΔNSS (rats [4]; Exp 4D, 1mg/kg, times of administration 0 + 12h): 8.7±0.6 | ΔNSS (rats [4]; Exp 4D, 1mg/kg, times of administration 0,4,8,12h): 8.2±0.7 | ΔNSS (rats [4]; Exp 4E, 1mg/kg given + 1h post head trauma): 8.4±0.6 | ΔNSS (rats [4]; Exp 4E, 1mg/kg given + 2h post head trauma): 7.0±0.5 | ΔNSS (rats [4]; Exp 4E, 1mg/kg given + 3h post head trauma): 7.4±0.5

C#CCN(C)[C@H](C)Cc1ccccc1 [deprenyl]
latency to locate submerged platform (hypoxia-lesioned rats; Session I Run 1): 42 ± 16 s | latency to locate submerged platform (hypoxia-lesioned rats; Session I Run 2): 40 ± 17 s | latency to locate submerged platform (hypoxia-lesioned rats; Session II Run 1): 42 ± 18 s | latency to locate submerged platform (hypoxia-lesioned rats; Session II Run 2): 35 ± 16 s | latency to locate submerged platform (hypoxia-lesioned rats; Session III Run 1): 32 ± 15 s | latency to locate submerged platform (hypoxia-lesioned rats; Session III Run 2): 8 ± 2 s | latency to locate submerged platform (hypoxia-lesioned rats; Session IV Run 1): 19 ± 6 s | latency to locate submerged platform (hypoxia-lesioned rats; Session IV Run 2): 12 ± 4 s

From patent publication EP0738149B1 (priority 1994, dated 1995)
